# Measured values from patent US9273038B2, “Solid forms of an ion channel modulator” (Gilead Sciences, Inc., priority 2014, dated 2016).
# Where two headings read alike, the source gives them in different places.
# Tests used:
# [1] = Hydrate screen in ethanol/water and isopropanol/water: solubility and relative form stability; assay type: physicochemical; conditions: for Solubility: 5 days, started from Form I
# Experimental: A hydrate screen starting from Form I was also conducted to evaluate whether hydrates of Compound I exist. The hydrate screen was conducted in ethanol/water (Table 6) and isopropanol/water (Table 7) mixtures, and in both cases, a new polymorph of Compound I was discovered (denoted as Form III).
# From the initial hydrate screens presented in Table 6 and Table 7 no apparent trends were observed. In this case, all slurries of Form I in EtOH/water or IPA/water mixtures remained unchanged after 2 weeks (Table 8 and Table 9). Since Form III has been observed previously under the same conditions, it was suspected that the lack of form conversion is mainly due to slow kinetics. […] Attempts to determine the relative stability between Forms I and III at lower water activities were unsuccessful since Form I either was too soluble or oiled out at water activities of 0.8 or below.
# [2] = Stable hydrate screen in methanol/water: solubility by TGA; assay type: physicochemical
# Experimental: Since the hydrate screens from aqueous mixtures of ethanol and isopropyl alcohol were performed in a fairly narrow range of water activity (Aw≧0.8), it was desirable to determine the outcome over a wider range of water activities. An attempt was made to explore this using a system of methanol and water (Table 10). Form I was used as the starting material. […] At and above this Aw only Form I was found.
# [3] = Determination of transition temperature between Forms I and II (slurries at 35 and 38° C., pXRD); assay type: physicochemical; conditions: slurries with and without Form II seeds, iPrOAc/n-heptane
# Experimental: […] describes the set of experiments which concluded that Form I and II are enantiotropic forms and determined the transition temperature. Slurries of Form I with and without Form II seeds were stirred at 35° C. and 38° C. and samples were removed periodically for pXRD analysis. For slurries of Form I aged at 35° C., Form I dominated regardless of whether Form II seeds were present (albeit when Form II seeds were present, the full conversion to Form I took about 5 days) (Table 4). In contrast, slurries of Form I at 38° C. in the presence of Form II seeds rapidly turned over to Form II within 1 day and remained Form II even after the slurry was cooled to 20° C. for isolation. When no Form II seeds were present, Form I slurries remained unchanged even when aged at 38° C.
# [4] = Extended stable form screen starting from Form II: solubility of filtrate by TGA; assay type: physicochemical; conditions: suspension of the solid in solvent, filtrate analysed, 21 °C, organic solvent or mixture, thermodynamic from solid, about 21° C.
# Experimental: These experiments were performed at about 21° C. starting from Form II. After about 3 to 6 days in suspension two experiments produced full conversion from Form II to Form I; one became biphasic; and the rest remained Form II (FIG. 43). Three of the filtrates obtained from isolating the solid phase from samples became biphasic before the solubility could be measured by TGA.
# After about 8 to 11 days in suspension the distribution of forms remained unchanged (FIG. 44). All of the filtrates except one became biphasic before solubility could be measured by TGA.
# [5] = Stable form screen: solubility in single and binary solvents (HPLC, external standard); assay type: physicochemical
# Experimental: In order to determine whether other polymorphs of Compound I exist, a stable form screen was conducted. […] As a result, slurries were typically produced in non-polar solvents. Table 1). Slurries were also generated in solvent combinations with n-heptane (Table 2) and cyclohexane (Table 3). In cases where a slurry was formed, Form I was isolated after agitation for 1 day and 3 weeks.
# pKa = assay type: physicochemical
# [6] = tested on: late sodium current (INaL); conditions: as described in WO 2013/006485; cited from earlier work
# [7] = Dynamic vapor sorption (DVS) analysis; assay type: physicochemical; conditions: for Relative humidity of deliquescence (DVS): mono sulfate
# Experimental: The solids with unique XRPD patterns were characterized by DSC, TGA, ^1H NMR, KF and DVS. All XRPD patterns were obtained in the experimental setting as follows: 45 kV, 40 mA, Kα1=1.5406 Å, scan range 2 to 40°, step size 0.0167°, counting time: 15.24 s. DSC and TGA analyses were performed using 10° C./min heating rate over the 20 to 350° C. temperature range.
# [8] = Relative stability of Compound I Forms XIV and XV (seeding, heating at about 130° C., XRPD); assay type: physicochemical; conditions: seeding experiments; Form XV heated at about 130° C. for about 10 minutes gave Form XIV
# Experimental: In another experiment, Compound I FORM XV was heated at about 130° C. for about 10 minutes and cooled to about 21° C. prior to XRPD analysis.
# [9] = Dissolution test of Compound I Form VII in DI water; assay type: physicochemical; conditions: about 8 mg in 0.5 mL DI water; stirred overnight at room temperature; solid found: free base Form I
# Experimental: A dissolution test of Compound I Form VII (about 8 mg) and 0.5 mL of DI water was performed. The solids were almost completely dissolved at first, and then more solids precipitated out. The slurry was allowed to be stirred overnight at room temperature before XRPD and ^1H NMR analyses, which confirm Compound I free base (Form I).
compound,measurement,setting,value
"O=C1c2cc(-c3ccc(OC(F)(F)F)cc3)ccc2OCCN1Cc1ncccn1 [Compound I Form I, 4-(pyrimidin-2-ylmethyl)-7-(4-(trifluoromethoxy)phenyl)-3,4-dihydrobenzo[f][1,4]oxazepin-5(2H)-one]",Form I Solubility mg/g (2 weeks),"[1]; 10% EtOH/water, water activity >0.9",0.09 mg/g
same,Form I Solubility mg/g (2 weeks),"[1]; 10% IPA/water, water activity >0.9",0.10 mg/g
same,Form I Solubility mg/g (2 weeks),"[1]; 20% EtOH/water, water activity 0.8-0.9",0.10 mg/g
same,Form I Solubility mg/g (2 weeks),"[1]; 20% IPA/water, water activity >0.9",0.18 mg/g
same,Form I Solubility mg/g (2 weeks),"[1]; 25% IPA/water, water activity >0.9",0.65 mg/g
same,Form I Solubility mg/g (2 weeks),"[1]; 30% EtOH/water, water activity 0.8-0.9",0.49 mg/g
same,Form I Solubility mg/g (2 weeks),"[1]; 30% IPA/water, water activity >0.9",4.7 mg/g
same,Form I Solubility mg/g (2 weeks),"[1]; 35% EtOH/water, water activity 0.8-0.9",1.3 mg/g
same,3 days TGA,"[2]; Aw 0.6, 3 days",14 mg/mL
same,3 days TGA,"[2]; Aw 0.7, 3 days",4.5 mg/mL
same,14 days TGA,"[2]; Aw 0.7, 14 days",2 mg/mL
same,3 days TGA,"[2]; Aw 0.8, 3 days",1.4 mg/mL
same,14 days TGA,"[2]; Aw 0.8, 14 days",1 mg/mL
same,3 days TGA,"[2]; Aw 0.9, 3 days",0.5 mg/mL
same,14 days TGA,"[2]; Aw 0.9, 14 days",<1 mg/mL
same,Solubility (in words),"[2]; Aw below 0.6, only solutions present",extraordinarily high
same,Relative stability of Forms I and II (in words),[3]; listed as Form I,the more stable form at below 35 °C
"O=C1c2cc(-c3ccc(OC(F)(F)F)cc3)ccc2OCCN1Cc1ncccn1 [Compound I Form II, 4-(pyrimidin-2-ylmethyl)-7-(4-(trifluoromethoxy)phenyl)-3,4-dihydrobenzo[f][1,4]oxazepin-5(2H)-one]",Solubility,"[4]; Ethanol/n-heptane (1/4) v/v, 4-6 days, read-out: 4-6 Days Solubility",32 mg/mL
same,Solubility,"[4]; MIBK/n-heptane (1/4) v/v, 4-6 days, read-out: 4-6 Days Solubility",26 mg/mL
same,Solubility,"[4]; MIBK/n-heptane (1/4) v/v, 8-11 days, read-out: 8-11 Day Solubility",35 mg/mL
same,Solubility,"[4]; THF/n-heptane (1/4) v/v, 4-6 days, read-out: 4-6 Days Solubility",29 mg/mL
same,Relative stability of Forms I and II (in words),[3]; listed as Form II,the more stable form at or above 38 °C
"O=C1c2cc(-c3ccc(OC(F)(F)F)cc3)ccc2OCCN1Cc1ncccn1 [Compound I, 4-(pyrimidin-2-ylmethyl)-7-(4-(trifluoromethoxy)phenyl)-3,4-dihydrobenzo[f][1,4]oxazepin-5(2H)-one]",Solubility (mg/g) (3 weeks),"[5]; 2-MeTHF/n-heptane (1:5) v/v, slurry, solid Form I",6.7 mg/g
same,Solubility (mg/g) (3 weeks),"[5]; Cyclohexane, slurry, solid Form I",2.4 mg/g
same,Solubility (mg/g) (1 day),"[5]; EtOAc/cyclohexane (1:3) v/v, 1 day, slurry, solid Form I",86 mg/g
same,Solubility (mg/g) (3 weeks),"[5]; IPA/n-heptane (1:4) v/v, slurry, solid Form I",20.0 mg/g
same,Solubility (mg/g) (3 weeks),"[5]; IPA, homogenous",>300 mg/g
same,Solubility (mg/g) (3 weeks),"[5]; IPE, slurry, solid Form I",21.5 mg/g
same,Solubility (mg/g) (3 weeks),"[5]; MTBE/n-heptane (1:2) v/v, slurry, solid Form I",5.4 mg/g
same,Solubility (mg/g) (3 weeks),"[5]; MTBE, homogenous",>240 mg/g
same,Solubility (mg/g) (3 weeks),"[5]; MeCN, homogenous",>350 mg/g
same,Solubility (mg/g) (3 weeks),"[5]; Toluene/n-heptane (1:3) v/v, slurry, solid Form I",7.1 mg/g
same,Solubility (mg/g) (3 weeks),"[5]; Toluene, homogenous",>500 mg/g
same,Solubility (mg/g) (3 weeks),"[5]; Water, slurry, solid Form I",0 mg/g
same,Solubility (mg/g) (3 weeks),"[5]; iPrOAc/n-heptane (1:3) v/v, slurry, solid Form I",18.9 mg/g
same,Solubility in organic solvents (in words),[5]; many organic solvents,highly soluble
same,Solubility (mg/g) (3 weeks),"[5]; n-Heptane, slurry, solid Form I",0.9 mg/g
same,Solubility (mg/g) (3 weeks),"[5]; t-amyl alcohol/n-heptane (1:3) v/v, slurry, solid Form I",17.5 mg/g
same,Solubility,"[1]; 10% EtOH in water (volume), water activity >0.9, solid found Form I",0 mg/g
same,Solubility,"[1]; 10% IPA in water (volume), water activity >0.9, solid found Form III",0 mg/g
same,Solubility,"[1]; 20% EtOH in water (volume), water activity 0.8-0.9, solid found Form III",0.05 mg/g
same,Solubility,"[1]; 20% IPA in water (volume), water activity >0.9, solid found Form I",0 mg/g
same,Solubility,"[1]; 25% IPA in water (volume), water activity >0.9, solid found Form III",0.5 mg/g
same,Solubility,"[1]; 30% EtOH in water (volume), water activity 0.8-0.9, solid found Form I",0.6 mg/g
same,pKa,pKa,< 2
same,Late sodium current inhibition (in words),[6],selective late sodium current inhibitor
"O=C1c2cc(-c3ccc(OC(F)(F)F)cc3)ccc2OCCN1Cc1ncccn1.O=S(=O)(O)O [Compound I Form XIV, 4-(pyrimidin-2-ylmethyl)-7-(4-(trifluoromethoxy)phenyl)-3,4-dihydrobenzo[f][1,4]oxazepin-5(2H)-one mono sulfate]",Relative humidity of deliquescence (DVS),[7]; listed as Compound I FORM XIV,around 70 % RH
same,Relative humidity of deliquescence (DVS),[7],about 70 % RH
same,Relative stability of Forms XIV and XV (in words),[8],the more stable phase in comparison with Compound I FORM XV
"Cc1ccc(S(=O)(=O)O)cc1.O=C1c2cc(-c3ccc(OC(F)(F)F)cc3)ccc2OCCN1Cc1ncccn1 [Compound I Form VII, 4-(pyrimidin-2-ylmethyl)-7-(4-(trifluoromethoxy)phenyl)-3,4-dihydrobenzo[f][1,4]oxazepin-5(2H)-one p-toluenesulfonic acid]",Hygroscopicity by DVS (in words),[7],moderately hygroscopic
same,Moisture uptake at 90% RH (DVS),[7]; 90% RH,about 2.75 wt %
same,Water adsorbed at 90% RH (DVS),[7]; 90% RH,about 0.9 molar equivalents
same,Moisture uptake at 90% RH (DVS),"[7]; 90% RH, listed as Form VII",2.75 wt % at
same,Hygroscopicity by DVS (in words),[7]; listed as Form VII,Moderately
same,Stability in water (in words),[9],unstable in water and dissociates in it
